Where two headings read alike, the source gives them in different places. Peptide text beside a SMILES is read from it.
Key:
[1] = tested on: rat tail artery helical strip; set-up: dose or concentration left out as unconfirmed; settings: strips contracted with arginine vasopressin
Experimental: Male and female Sprague-Dawley rats were anesthetized with pentobarbital (50 mg/kg) before removal of the tail artery. Upon isolation the artery was placed in ice cold Krebs-Hensleit solution (KHS) which was oxygenated with 95% O2, 5% CO2. The vessels were cut helically and strips of approximately 1.5 cm were secured in a Sawyer-Bartleston chamber containing KHS. The development of force of the helical strips was measured with a Grass FT.03 force displacement transducer and recorded on a Grass Model 79D polygraph. Isolated tail artery helical strips were equilibrated for one hour prior to addition of any peptide. In all cases, the strips were first contracted by adding arginine vasopressin (AVP), to the bath. The peptide being studied was then added to the bath and the degree of relaxation was determined.

Mongrel dogs = assay: dog blood pressure assay; format: in vivo; settings: dose 3 × 10^-9 moles/kg, mean of 4 replications
Experimental: The dog blood pressure assay was conducted according to the following method:
Mongrel dogs of either sex weighing between 6-15 kg were anesthetized by intravenous injection of sodium pentobarbital (30 mg/kg). The femoral artery and vein were cannulated for the measurement of blood pressure and the injection of drugs, respectively. Arterial blood pressure was determined with a Statham pressure transducer and was recorded on a Grass polygraph. Mean arterial pressure (MAP) were calculated for the periods before and after each peptide injection. A tracheotomy was performed to insure a patient airway for spontaneous respiration.
Hypotensive screening studies involved injecting each dog with 0.1; 0.5; 1.0; and 2.0 ug/kg. The CIP as supplied by Peninsula Laboratories was in the lyophilyzed form. Prior to injection the CIP was dissolved in saline.

Sprague-Dawley rats = assay: rat blood pressure assay; format: in vivo; settings: anesthetized rat, mean of 4 replications
Experimental: The rat blood pressure assay was conducted as follows: Sprague-Dawley rats of both sexes, weighing between 100 and 200 grams, were anesthetized with sodium pentobarbital and the right carotid artery and jugular vein were cannulated with polyethylene tubing PE50. The hypotensive peptide was administered and blood pressure was recorded in the anesthetized rats as described above for dogs.

Molecule	Tension change ([1]; dose of 100) [gm]	Tension change ([1]; dose of 200) [gm]	Tension change ([1]; dose of 500) [gm]	other results
O=C(O)[C@@H]1CCCN1 [L Pro, L-proline]	0	0	0	–
NC(N)=NCCC[C@H](NC(=O)[C@H](Cc1ccccc1)NC(=O)[C@@H]1CCCN1C(=O)[C@H](CO)NC(=O)[C@H](Cc1ccccc1)NC(=O)CNC(=O)[C@@H]1CCCN1C(=O)[C@@H]1CCCN1C(=O)[C@@H](N)CCCN=C(N)N)C(=O)O [Bradykinin] (H-RPPGFSPFR-OH)	–	–	–	Maximum Decrease in Blood Pressure (Mongrel dogs): 44 mmHg
N=C(N)NCCC[C@H](N)C(=O)O [L Arg, L-arginine]	0	0	0	–
Thy-Pro-Arg-Lys [Contraceptive tetrapeptide]	–	–	–	Blood Pressure Decrease (Sprague-Dawley rats; dose 100.0 ug/kg): 2 mmHg; Blood Pressure Decrease (Sprague-Dawley rats; dose 200.0 ug/kg): 3 mmHg; Blood Pressure Decrease (Sprague-Dawley rats; dose 500.0 ug/kg): 9 mmHg; Blood Pressure Decrease (Sprague-Dawley rats; dose 1000.0 ug/kg): 13 mmHg; Blood Pressure Decrease (Sprague-Dawley rats; dose 2000.0 ug/kg): 15 mmHg

Reference: patent US4585757A, “Hypotensive active peptides” (Texas Tech University Health Sciences Center, priority 1984, dated 1986)
